Test results from patent US20190284640A1, “Methods and Systems for Predicting Response to Immunotherapies for Treatment of Cancer” (Vanderbilt University, priority 2018, published 2019).
Entries after “also recorded” stand apart in the source; their conditions may differ.

Assays:
melanoma cell lines [1] = experiment: Flow cytometry of melanoma cell lines under basal and IFNγ-stimulated conditions; format: cell-based, human
Protocol: (§1) FIGS. 3A-F show characterization of MHC-II(+) melanoma cell lines. Melanoma cell lines were treated with IFNy for 24 h before collection and live-cell staining and flow cytometry analysis for (A) MHC-I (HLA-A/B/C), (B) MHC-II (HLA-DR), and (C) PD-L1. Bars represent mean ±S.E.M. for at least three experiments (D) Representative flow plots from (C). (E) Western blot analysis of melanoma cell lines after 24 or 48 h of IFNy stimulation. (F) Phosphorylation of STAT1 (top row) and STATS (bottom row) in melanoma cell lines at 15 min after IFNy stimulation. Histograms were colored according to the arcsinh transformed ratio or MFI medians relative to the table minimum value.
FIGS. 4A-D show graphs illustrating mean expression levels of MHC-I, MHC-II, and PD-L1 at baseline and after IFNy stimulation. Melanoma cell lines were treated with 100 ng IFNy for 24 hr (shown as percentage positive in FIGS. 2A-C) prior to harvest and live-cell staining and flow cytometry analysis for (A) MHC-FHLA-A/B/C, (B) MHC-II/HLA-DR, and (C) PD-L1. Bars represent mean fluorescence intensity ±SEM for 3 experiments. (D) Histograms of HLA-DR surface expression over an extended (24-72 hr) IFNy treatment, as assessed by flow cytometry.
Cell surface expression mirrored mRNA expression patterns; MHC-I (HLA-A/B/C) was expressed ubiquitously among all cell lines under both basal and stimulated conditions, while MHC-II (HLA-DR) was present only on the intermediate/Ib (SKMEL5 and SKMEL28) and high/Ia cell lines (WM115 and A375; FIGS. 3A-C and 4A-D). […] The high (Ia) WM115 cell line was essentially 100% positive for HLA-DR at both basal and stimulated conditions.
Standard Flow Cytometry. Flow cytometry was performed using the following antibodies: HLA-DR/PE-Cy7 (Biolegend, clone L243. 1:20). CD274/PD-L1/APC (Biolegend, clone 29E.2A3, 1:200) and HLA-A/B/C-Alexa Fluor488 (1:100, Biolegend, clone W6/32) mouse MHC-II (I-A/I-E 1:20 Biolegend, clone M5/114.15.2). DAPI was used as a viability dye. Samples were analyzed on an Aria III laser system (BD Biosciences)
Cell and tumor culture. […]

melanoma cell lines [2] = experiment: Western blot of melanoma cell lines after IFNγ stimulation; format: cell-based, human
Protocol: as §1
Immunoblotting was performed as previously described^32 Briefly, cells were washed in cold phosphate-buffered saline, collected and lysed in 1×RIPA buffer (50 mM Tris (pH 7.4), 1% NP-40, 150 mM NaCl, 1 mM EDTA, 0.1% SDS, 0.25% sodium deoxycholate, 5 mM NaF, 5 mM Na3VO4, 10% glycerol, […] phenylmethyl-sulphonylfluoride and protease inhibitors) for 30 min on ice. Lysates were sonicated for 2-3 s to shear DNA and cleared by centrifugation at 13,200 r.p.m. for 15 min. Protein concentrations of the lysates were determined by BCA assay (Bio-Rad, Hercules, Calif.). Samples were separated by SDS-PAGE and transferred to nitrocellulose membrane. […]

melanoma cell lines [3] = experiment: Phospho-flow cytometry of melanoma cell lines after IFNγ stimulation; format: cell-based, human; details: 15 min IFNγ; MHC-II(−) cell lines
Protocol: as §1
Phospho-flow cytometry. Melanoma cell lines were treated with Accutase™ (EMD Millipore, # SCR005) for 10 minutes at 37° C. to dissociate them from the plate. Dissociated cell lines were rested at 37° C. in a CO2 incubator for 30 minutes prior to stimulation. After resting, cells were stimulated by adding IFNy (Cell Signaling) at a final concentration of 100 ng/mL. During signaling, cells were kept in a 37° C. CO2 incubator. After 15 minutes of signaling, cells were fixed for 10 minutes at room temperature with a final concentration of 1.6% paraformaldehyde (Electron Microscopy Services). […] Samples were analyzed on a LSRII system (BD Biosciences).

[4] = system: melanoma PDX tissue slices; experiment: Ex vivo organotypic culture of PDX tumor slices with or without IFNγ; format: cell-based, human; details: PT1 and PT2 PDX tissue slices, 24-48 h
Text: FIGS. 6A-D show Ex vivo culture of tumors derived from anti-PD-1-responding and non-responding patients identifies heterogeneity in interferon response. (A) Patient tumor blocks stained for HLA-DR (brown) and SOX10 (pink) at low (scale bar, 500 um) and high magnification (scale bar, […]); PT1: anti-PD-1 non-responder and PT2: anti-PD-1 responder. (B) Experimental schema. (C) Schema and images of PDX tissue sections (ex vivo organotypic culture). (D) Western blot analysis of tissue sections cultured in the presence or absence of IFNy for 24-48 h.
To test this hypothesis, patient-derived xenograft (PDX) models were utilized from the tumor resections of two melanoma patients who subsequently received anti-PD1 therapy; patient 1 (PT1; non-responder, 0% HLA-DR-positive, class II/III) and patient 2 (PT2; partial responder, heterogeneous 15% HLA-DR-positive, class Ib) (FIG. 6A). […] The resected tumors from PT1 and PT2 were serially transplanted to athymic nu/nu mice, which are highly deficient in functional T cells, ruling out a possible source of IFNγ (FIG. 6B). […] Thus, HLA-DR may be a marker of IFNγ activity in the microenvironment of some (but not all) tumors.
Cell and tumor culture. SKMEL-28 and WM115 cell lines were obtained from Dr. Kimberly Dahlman (Vanderbilt University), CHL-1 and HMCB melanoma cell lines were obtained from the laboratory of William Pao (Vanderbilt University). […]

[5] = system: p53 altered MMTV-Neu cells; experiment: Chemokine induction by doxorubicin in MMTV-Neu cells; format: cell-based, mouse
Text: Doxorubicin induces T cell recruiting chemokines in p53 altered MMTV-Neu cells. FIG. 49.

[6] = system: TP53 mutant mouse breast cancer cells lines; experiment: Cytokine expression after doxorubicin in mouse breast cancer cell lines; format: cell-based

With “IFNγ: recombinant human IFNγ (R&D Systems), stimulation at 100 ng/mL” the HLA-DR expression (melanoma cell lines [1]; CHL-1 or HMCB, 72 hrs of IFNγ treatment) was “No significant increase”, the HLA-DR expression (melanoma cell lines [1]; SKMEL28 (intermediate/Ib)) was “potently induced” and the PD-L1 expression (melanoma cell lines [1]; all cell lines tested) was “potently induced; also recorded: significantly upregulated”. For the same molecule, the CIITA expression (melanoma cell lines [2]; 24 or 48 h IFNγ) was “only induced in HLA-DR+ Ia/Ib cells”, the STAT1 activation (melanoma cell lines [2]; all cell lines) was “robustly activated” and the STATS activation (melanoma cell lines [3]) was “preferentially activated”. The HLA-DR upregulation [4] was “only the PT2 PDX model (anti-PD-1 responder) upregulated HLA-DR”.

In the case of `COc1cccc2c1C(=O)c1c(O)c3c(c(O)c1C2=O)C[C@@](O)(C(=O)CO)C[C@@H]3O[C@H]1C[C@H](N)[C@H](O)[C@H](C)O1` [Doxorubicin], the “T cell recruiting chemokines” value [5] is reported as “induces” and the cytokine expression [6] is reported as “induce cytokine expression”.
